Converted amounts (≈) assume the structure as drawn. The source made the active and inactive calls. No cut-off for these calls is given here.
Tests used:
[1] = tested on: Escherichia coli; test: Antibacterial activity against non-gentamicin-resistant Escherichia coli clinical isolate after 18 hrs by agar dilution method; format: functional
[2] = tested on: Klebsiella aerogenes; test: Antibacterial activity against non-gentamicin-resistant Enterobacter aerogenes clinical isolate after 18 hrs by agar dilution method; format: functional
[3] = tested on: Citrobacter koseri; test: Antibacterial activity against non-gentamicin-resistant Citrobacter diversus clinical isolate after 18 hrs by agar dilution method; format: functional
[4] = tested on: Proteus mirabilis; test: Antibacterial activity against non-gentamicin-resistant Proteus mirabilis clinical isolate after 18 hrs by agar dilution method; format: functional
[5] = tested on: Morganella morganii; test: Antibacterial activity against non-gentamicin-resistant Morganella morganii clinical isolate after 18 hrs by agar dilution method; format: functional
[6] = tested on: Citrobacter freundii; test: Antibacterial activity against non-gentamicin-resistant Citrobacter freundii clinical isolate after 18 hrs by agar dilution method; format: functional
[7] = tested on: Providencia rettgeri; test: Antibacterial activity against non-gentamicin-resistant Proteus rettgeri clinical isolate after 18 hrs by agar dilution method; format: functional
[8] = tested on: Pseudomonas aeruginosa; test: Antibacterial activity against non-gentamicin-resistant Pseudomonas aeruginosa clinical isolate after 18 hrs by agar dilution method; format: functional
[9] = tested on: Haemophilus influenzae; test: Antibacterial activity against non-gentamicin-resistant Haemophilus influenzae clinical isolate after 18 hrs by agar dilution method; format: functional
[10] = tested on: Haemophilus parainfluenzae; test: Antibacterial activity against non-gentamicin-resistant Haemophilus parainfluenzae clinical isolate after 18 hrs by agar dilution method; format: functional
[11] = tested on: Escherichia coli; test: Antibacterial activity against non-gentamicin-resistant Escherichia coli clinical isolate assessed as susceptible isolates after 18 hrs by agar dilution method; format: functional
[12] = tested on: Enterobacter cloacae; test: Antibacterial activity against non-gentamicin-resistant Enterobacter cloacae clinical isolate assessed as susceptible isolates after 18 hrs by agar dilution method; format: functional
[13] = tested on: Klebsiella aerogenes; test: Antibacterial activity against non-gentamicin-resistant Enterobacter aerogenes clinical isolate assessed as susceptible isolates after 18 hrs by agar dilution method; format: functional
[14] = tested on: Citrobacter koseri; test: Antibacterial activity against non-gentamicin-resistant Citrobacter diversus clinical isolate assessed as susceptible isolates after 18 hrs by agar dilution method; format: functional
[15] = tested on: Proteus mirabilis; test: Antibacterial activity against non-gentamicin-resistant Proteus mirabilis clinical isolate assessed as susceptible isolates after 18 hrs by agar dilution method; format: functional
[16] = tested on: Pseudomonas aeruginosa; test: Antibacterial activity against non-gentamicin-resistant Pseudomonas aeruginosa clinical isolate assessed as susceptible isolates after 18 hrs by agar dilution method; format: functional
[17] = tested on: Pseudomonas sp.; test: Antibacterial activity against non-gentamicin-resistant Pseudomonas spp. clinical isolate assessed as susceptible isolates after 18 hrs by agar dilution method; format: functional
[18] = tested on: Haemophilus parainfluenzae; test: Antibacterial activity against non-gentamicin-resistant Haemophilus parainfluenzae clinical isolate assessed as susceptible isolates after 18 hrs by agar dilution method; format: functional, organism-based
[19] = tested on: Staphylococcus aureus; test: Antibacterial activity against non-gentamicin-resistant Staphylococcus aureus clinical isolate assessed as susceptible isolates after 18 hrs by agar dilution method; format: functional
[20] = tested on: Staphylococcus epidermidis; test: Antibacterial activity against non-gentamicin-resistant Staphylococcus epidermidis clinical isolate assessed as susceptible isolates after 18 hrs by agar dilution method; format: functional
[21] = tested on: Escherichia coli; test: Antibacterial activity against gentamicin-resistant Escherichia coli clinical isolate after 18 hrs by agar dilution method; format: functional
[22] = tested on: Enterobacter cloacae; test: Antibacterial activity against gentamicin-resistant Enterobacter cloacae clinical isolate after 18 hrs by agar dilution method; format: functional
[23] = tested on: Citrobacter koseri; test: Antibacterial activity against gentamicin-resistant Citrobacter diversus clinical isolate after 18 hrs by agar dilution method; format: functional
[24] = tested on: Proteus mirabilis; test: Antibacterial activity against gentamicin-resistant Proteus mirabilis clinical isolate after 18 hrs by agar dilution method; format: functional
[25] = tested on: Serratia marcescens; test: Antibacterial activity against gentamicin-resistant Serratia marcescens clinical isolate after 18 hrs by agar dilution method; format: functional
[26] = tested on: Morganella morganii; test: Antibacterial activity against gentamicin-resistant Morganella morganii clinical isolate after 18 hrs by agar dilution method; format: functional
[27] = tested on: Citrobacter freundii; test: Antibacterial activity against gentamicin-resistant Citrobacter freundii clinical isolate after 18 hrs by agar dilution method; format: functional
[28] = tested on: Providencia rettgeri; test: Antibacterial activity against gentamicin-resistant Proteus rettgeri clinical isolate after 18 hrs by agar dilution method; format: functional
[29] = tested on: Staphylococcus aureus; test: Antibacterial activity against gentamicin-resistant Staphylococcus aureus clinical isolate after 18 hrs by agar dilution method; format: functional
[30] = tested on: Staphylococcus epidermidis; test: Antibacterial activity against gentamicin-resistant Staphylococcus epidermidis clinical isolate after 18 hrs by agar dilution method; format: functional
[31] = tested on: Escherichia coli; test: Antibacterial activity against gentamicin-resistant Escherichia coli clinical isolate assessed as susceptible isolates after 18 hrs by agar dilution method; format: functional
[32] = tested on: Enterobacter cloacae; test: Antibacterial activity against gentamicin-resistant Enterobacter cloacae clinical isolate assessed as susceptible isolates after 18 hrs by agar dilution method; format: functional
[33] = tested on: Klebsiella aerogenes; test: Antibacterial activity against gentamicin-resistant Enterobacter aerogenes clinical isolate assessed as susceptible isolates after 18 hrs by agar dilution method; format: functional
[34] = tested on: Citrobacter koseri; test: Antibacterial activity against gentamicin-resistant Citrobacter diversus clinical isolate assessed as susceptible isolates after 18 hrs by agar dilution method; format: functional
[35] = tested on: Proteus mirabilis; test: Antibacterial activity against gentamicin-resistant Proteus mirabilis clinical isolate assessed as susceptible isolates after 18 hrs by agar dilution method; format: functional
[36] = tested on: Serratia marcescens; test: Antibacterial activity against gentamicin-resistant Serratia marcescens clinical isolate assessed as susceptible isolates after 18 hrs by agar dilution method; format: functional
[37] = tested on: Morganella morganii; test: Antibacterial activity against gentamicin-resistant Morganella morganii clinical isolate assessed as susceptible isolates after 18 hrs by agar dilution method; format: functional
[38] = tested on: Citrobacter freundii; test: Antibacterial activity against gentamicin-resistant Citrobacter freundii clinical isolate assessed as susceptible isolates after 18 hrs by agar dilution method; format: functional
[39] = tested on: Providencia rettgeri; test: Antibacterial activity against gentamicin-resistant Proteus rettgeri clinical isolate assessed as susceptible isolates after 18 hrs by agar dilution method; format: functional
[40] = tested on: Acinetobacter calcoaceticus; test: Antibacterial activity against gentamicin-resistant Acinetobacter calcoaceticus clinical isolate assessed as susceptible isolates after 18 hrs by agar dilution method; format: functional
[41] = tested on: Pseudomonas aeruginosa; test: Antibacterial activity against gentamicin-resistant Pseudomonas aeruginosa clinical isolate assessed as susceptible isolates after 18 hrs by agar dilution method; format: functional
[42] = tested on: Pseudomonas sp.; test: Antibacterial activity against gentamicin-resistant Pseudomonas spp. clinical isolate assessed as susceptible isolates after 18 hrs by agar dilution method; format: functional
[43] = tested on: Staphylococcus aureus; test: Antibacterial activity against gentamicin-resistant Staphylococcus aureus clinical isolate assessed as susceptible isolates after 18 hrs by agar dilution method; format: functional
[44] = tested on: Staphylococcus epidermidis; test: Antibacterial activity against gentamicin-resistant Staphylococcus epidermidis clinical isolate assessed as susceptible isolates after 18 hrs by agar dilution method; format: functional
[45] = tested on: Enterococcus faecalis; test: Antibacterial activity against gentamicin-resistant Enterococcus faecalis clinical isolate assessed as susceptible isolates after 18 hrs by agar dilution method; format: functional, organism-based

GENTAMICIN
MIC [1]: 0.25 µg/mL
MIC90 [1]: 1 µg/mL
MIC50 [2]: 0.25 µg/mL
MIC90 [2]: 0.5 µg/mL
MIC50 [3]: 0.25 µg/mL
MIC90 [3]: 0.5 µg/mL
MIC50 [4]: 0.5 µg/mL
MIC90 [4]: 1 µg/mL
MIC90 [5]: 8 µg/mL
MIC50 [6]: 0.25 µg/mL
MIC90 [6]: 1 µg/mL
MIC50 [7]: 4 µg/mL
MIC90 [7]: 8 µg/mL
MIC50 [8]: 4 µg/mL
MIC90 [8]: 8 µg/mL
MIC50 [9]: 2 µg/mL
MIC90 [9]: 2 µg/mL
MIC50 [10]: 2 µg/mL
MIC90 [10]: 4 µg/mL
Activity [11]: 100%
Activity [12]: 98.2%
Activity [13]: 98.1%
Activity [14]: 100%
Activity [15]: 96.8%
Activity [16]: 65.6%
Activity [17]: 81.8%
Activity [18]: inactive
Activity [19]: 85.7%
Activity [20]: 92.5%
MIC50 [21]: 64 µg/mL
MIC90 [21]: > 128 µg/mL
MIC50 [22]: > 128 µg/mL
MIC90 [22]: > 128 µg/mL
MIC50 [23]: > 128 µg/mL
MIC90 [23]: > 128 µg/mL
MIC50 [24]: 128 µg/mL
MIC90 [24]: > 128 µg/mL
MIC50 [25]: > 128 µg/mL
MIC90 [25]: > 128 µg/mL
MIC50 [26]: 128 µg/mL
MIC90 [26]: > 128 µg/mL
MIC50 [27]: 64 µg/mL
MIC90 [27]: 128 µg/mL
MIC50 [28]: 64 µg/mL
MIC90 [28]: 128 µg/mL
MIC50 [29]: 32 µg/mL
MIC90 [29]: 128 µg/mL
MIC50 [30]: 16 µg/mL
MIC90 [30]: > 128 µg/mL
Activity [31]: 0%
Activity [32]: 0%
Activity [33]: 0%
Activity [34]: 0%
Activity [35]: 0%
Activity [36]: 0%
Activity [37]: 0%
Activity [38]: 0%
Activity [39]: 0%
Activity [40]: 0%
Activity [41]: 0%
Activity [42]: 0%
Activity [43]: 0%
Activity [44]: 0%
Activity [45]: inactive

NCC[C@H](O)C(=O)N[C@@H]1C[C@H](N)[C@@H](O[C@H]2O[C@H](CN)[C@@H](O)[C@H](O)[C@H]2O)[C@H](O)[C@H]1O[C@H]1O[C@H](CO)[C@@H](O)[C@H](N)[C@H]1O [AMIKACIN]
MIC50 [1]: 1 µg/mL (≈ 1.71 µM)
MIC90 [1]: 2 µg/mL (≈ 3.42 µM)
MIC50 [2]: 1 µg/mL (≈ 1.71 µM)
MIC90 [2]: 2 µg/mL (≈ 3.42 µM)
MIC50 [3]: 1 µg/mL (≈ 1.71 µM)
MIC90 [3]: 2 µg/mL (≈ 3.42 µM)
MIC50 [4]: 2 µg/mL (≈ 3.42 µM)
MIC90 [4]: 4 µg/mL (≈ 6.83 µM)
MIC50 [5]: 1 µg/mL (≈ 1.71 µM)
MIC90 [5]: 2 µg/mL (≈ 3.42 µM)
MIC50 [6]: 2 µg/mL (≈ 3.42 µM)
MIC90 [6]: 4 µg/mL (≈ 6.83 µM)
MIC50 [7]: 2 µg/mL (≈ 3.42 µM)
MIC90 [7]: 32 µg/mL (≈ 54.6 µM)
MIC50 [8]: 4 µg/mL (≈ 6.83 µM)
MIC90 [8]: 16 µg/mL (≈ 27.3 µM)
MIC50 [9]: 8 µg/mL (≈ 13.7 µM)
MIC90 [9]: 16 µg/mL (≈ 27.3 µM)
MIC50 [10]: 4 µg/mL (≈ 6.83 µM)
MIC90 [10]: 8 µg/mL (≈ 13.7 µM)
Activity [11]: 100%
Activity [12]: 96.4%
Activity [13]: 100%
Activity [14]: 100%
Activity [15]: 100%
Activity [16]: 100%
Activity [17]: 90.9%
Activity [18]: inactive
Activity [19]: 100%
Activity [20]: 98.8%
MIC50 [21]: 1 µg/mL (≈ 1.71 µM)
MIC90 [21]: 4 µg/mL (≈ 6.83 µM)
MIC50 [22]: 16 µg/mL (≈ 27.3 µM)
MIC90 [22]: 32 µg/mL (≈ 54.6 µM)
MIC50 [23]: 32 µg/mL (≈ 54.6 µM)
MIC90 [23]: 64 µg/mL (≈ 109 µM)
MIC50 [24]: 4 µg/mL (≈ 6.83 µM)
MIC90 [24]: > 128 µg/mL
MIC50 [25]: > 128 µg/mL
MIC90 [25]: > 128 µg/mL
MIC50 [26]: 1 µg/mL (≈ 1.71 µM)
MIC90 [26]: 4 µg/mL (≈ 6.83 µM)
MIC50 [27]: 2 µg/mL (≈ 3.42 µM)
MIC90 [27]: 32 µg/mL (≈ 54.6 µM)
MIC50 [28]: 1 µg/mL (≈ 1.71 µM)
MIC90 [28]: 32 µg/mL (≈ 54.6 µM)
MIC50 [29]: 8 µg/mL (≈ 13.7 µM)
MIC90 [29]: 128 µg/mL (≈ 219 µM)
MIC50 [30]: 4 µg/mL (≈ 6.83 µM)
MIC90 [30]: 64 µg/mL (≈ 109 µM)
Activity [31]: 93%
Activity [32]: 63.2%
Activity [33]: 55%
Activity [34]: 35.7%
Activity [35]: 63.6%
Activity [36]: 30%
Activity [37]: 83.3%
Activity [38]: 31.6%
Activity [39]: 80%
Activity [40]: 48%
Activity [41]: 85.3%
Activity [42]: 7.7%
Activity [43]: 80.6%
Activity [44]: 73.1%
Activity [45]: inactive
